Columns and labels:
[1] = test system: Active fraction 1 (purine nucleosidase activity); assay: Purine nucleosidase activity of active fraction 1 (1st DEAE-Sephacel); format: biochemical, Ochrobactrum anthropi
Method: After suspending 20 g of the wet cells in 40 ml of 10 mM Tris-HCl buffer solution (pH 7.4) (hereunder referred to as "buffer"), they were disrupted in a Dynamill at 4° C. for 10 minutes. After filtering the disrupted cell suspension it was centrifuged (10,000 rpm, 60 min) and the supernatant was used as a cell-free extract. The cell-free extract (250 ml) was dialyzed for 12 hours against 5 L of buffer and then applied to a DEAE-Sephacel column (3×30 cm, 200 ml) which had been equilibrized with the buffer. The adsorbed protein was eluted with an NaCl concentration gradient from 0 to 1.0 M and the active fractions were recovered.
The purine nucleosidase activity at this time was split into two peaks (FIG. 1). Fraction nos. 46 to 69 were collected as the first active fraction and fraction nos. 85 to 101 were collected as the second active fraction.
(§1) The reaction solution (200 μl) contained 0.5 mM of adenosine or inosine or 0.25 mM of guanosine as the substrate, 50 mM of acetate buffer at pH 4.5 and a sufficient amount of enzyme. The reaction was initiated by addition of the enzyme, and the reaction was conducted at 50° C. for 5 minutes. The reaction was terminated by addition of 20 μl of 15% perchloric acid, and after centrifugation (35,000 rpm, 10 min) the supernatant was analyzed qualitatively by thin-layer chromatography (TLC) and quantitatively by high-performance liquid chromatography. The analysis methods were as follows.

[2] = test system: Active fraction 2 (purine nucleosidase activity); assay: Purine nucleosidase activity of active fraction 2 (1st DEAE-Sephacel); format: biochemical, Ochrobactrum anthropi
purine nucleosidase [3] = assay: Substrate specificity of purine nucleosidase by thin-layer chromatography; format: biochemical, Ochrobactrum anthropi; conditions: for decomposition of purine nucleosides (in words): pH 5.5 and 60° C.; for Relative activity: thin-layer chromatography
Method: as §1
(1) Thin-layer chromatography
Plate: Kieselgel 60F254 (Merk)
Developing solution: n-butanol/isopropanol/H2 O/NH4 OH=1:7:2:0.2 (v/v/v/v) (for adenosine and guanosine substrates), n-butanol/acetic acid/H2 O=5:1:1 (v/v/v) (for inosine substrate)
The substrate specificity of the purine nucleosidase was determined by thin-layer chromatography (TLC).
(§2) The specific activity was measured under conditions of 50° C., pH 4.5. The Km and Vmax were measured under conditions of 30° C., pH 4.5. The relative activity was expressed according to the following measurement method.

purine nucleosidase [4] = assay: Specific activity, Km and Vmax of purine nucleosidase; format: biochemical, Ochrobactrum anthropi; conditions: pH 4.5; for Km / Vmax: 30° C.; for Specific activity: 50° C.
Method: as §1
(2) High-performance liquid chromatography
Eluent: 0.1 M sodium chlorate tetrahydrate, 0.1% (v/v) phosphoric acid
as §2

[5] = test system: Bacillus cereus nucleosidase; assay: Bacillus cereus nucleosidase, cell extracts; format: biochemical; conditions: studies by the present inventors
Excerpt: Based on studies by the present inventors using cell extracts, the activity against guanosine is low. Crithidia fasciculata nucleosidase has a high optimum pH of 8.5. Wort also contains various low molecular substances, sugars and proteins, and it has not yet been investigated whether known nucleosidases can actually act on them. Therefore, we screened natural sources for microorganism-derived purine nucleosidases which can utilize adenosine, inosine and guanosine as substrates under conditions of pH 5.0 to 5.5, 50 to 80° C. As a result, high purine nucleosidase activity was found in crushed cell solutions of Ochrobactrum anthropi.

[6] = test system: Aspergillus niger nucleosidase; conditions: cited from earlier work

| Structure (SMILES) | Specific activity, Active fraction 1 ([1]; 30° C.) [µmol/min/mg] | Specific activity, Active fraction 1 ([1]; 50° C.) [µmol/min/mg] | Specific activity, Active fraction 2 ([2]; 30° C.) [µmol/min/mg] | Specific activity, Active fraction 2 ([2]; 50° C.) [µmol/min/mg] | decomposition of purine nucleosides (in words) (purine nucleosidase [3]) | Relative activity (purine nucleosidase [3]) | Km (purine nucleosidase [4]) [µM] | Vmax (purine nucleosidase [4]) [µmol/min/mg] | Specific activity (purine nucleosidase [4]) [µmol/min/mg] | activity against substrate (in words) [5] | decomposition of substrate (in words) [6] |
| --- | --- | --- | --- | --- | --- | --- | --- | --- | --- | --- | --- |
| Nc1nc2c(ncn2[C@@H]2O[C@H](CO)[C@@H](O)[C@H]2O)c(=O)[nH]1 [guanosine] | 0.44 | 1.5 | 0.33 | 0.26 | capable of decomposing | ++++ (>50%) | 53.9 | 11.5 | 63.3 | low | – |
| OC[C@H]1O[C@@H](n2cnc3c(O)ncnc32)[C@H](O)[C@@H]1O [inosine] | 1.02 | 4.3 | 0.63 | 0.44 | capable of decomposing | ++++ (>50%) | 29.6 | 18.8 | 177 | – | – |
| O=c1[nH]c(=O)c2ncn([C@@H]3O[C@H](CO)[C@@H](O)[C@H]3O)c2[nH]1 [xanthosine] | – | – | – | – | capable of decomposing | ++++ (>50%) | 63.8 | 68 | – | – | cannot decompose |
